Laboratory results: US10947252B2, “Inhibitors of KEAP1-Nrf2 protein-protein interaction” (Janssen Pharmaceutica NV, priority 2018, dated 2021)

What was measured:
[1] = target: Kelch domain of human KEAP1 (321-624 aa) (Homo sapiens (Human), UniProt Q14145); test: KEAP1 KELCH ThermoFluor binding assay; details: KEAP Kelch […], 1,8-ANS, pH 7.0, average of results obtained, read-out: Tf Kd;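 note: Ligand-induced melting temperature shift of E. coli-expressed KEAP1 Kelch protein, Kd estimated from concentration-response curves of ΔTm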
Kelch domain of human KEAP1 (321-624 aa), sequence (Q14145 321-624): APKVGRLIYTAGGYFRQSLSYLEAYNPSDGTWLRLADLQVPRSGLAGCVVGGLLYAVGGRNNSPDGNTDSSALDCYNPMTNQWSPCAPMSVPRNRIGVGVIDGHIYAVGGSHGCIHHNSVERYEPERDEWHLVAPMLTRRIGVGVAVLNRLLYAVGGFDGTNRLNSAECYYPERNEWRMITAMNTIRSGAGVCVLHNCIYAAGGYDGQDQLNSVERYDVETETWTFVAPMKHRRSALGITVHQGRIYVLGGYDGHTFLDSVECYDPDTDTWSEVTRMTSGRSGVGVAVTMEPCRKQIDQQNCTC

[2] = system: Glo-Response ARE-luc2P HEK293 cell line; test: ARE luciferase reporter cell-based assay; details: Homo sapiens, HEK293, 24 h, average of results obtained;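 note: luciferase signal tracks Nrf2 activation of the ARE once compounds disrupt KEAP1-Nrf2 binding, read with One-Glo reagent, DMSO serving as low control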

Kd [1]	SMILES	EC50 [2]
< 1 nM	Cc1ccc([C@@H](CC(=O)O)c2ccn3c(C(F)F)nnc3c2C)cc1CN1CC2(COC2)Oc2ncccc2S1(=O)=O (single isomer, unassigned) [Example 471, (*R)-3-(3-(Difluoromethyl)-8-methyl-[1,2,4]triazolo[4,3-a]pyridin-7-yl)-3-(3-((1′,1′-dioxidospiro[oxetane-3,4′-pyrido[2,3-b][1,4,5]oxathiazepin]-2′(3′H)-yl)methyl)-4-methylphenyl)propanoic Acid]	2630 nM
< 1 nM	Cc1ccc([C@H](CC(=O)O)c2ccn3c(C(F)F)nnc3c2C)cc1CN1CC2(CC2)Oc2ncccc2S1(=O)=O (single isomer, unassigned) [Example 473, (*S)-3-(3-(Difluoromethyl)-8-methyl-[1,2,4]triazolo[4,3-a]pyridin-7-yl)-3-(3-((1′,1′-dioxidospiro[cyclopropane-1,4′-pyrido[2,3-b][1,4,5]oxathiazepin]-2′(3′H)-yl)methyl)-4-methylphenyl)propanoic Acid]	104 nM
< 1 nM	Cc1ccc([C@@H](CC(=O)O)c2ccn3c(C(F)F)nnc3c2C)cc1CN1CC2(CC2)Oc2ncccc2S1(=O)=O (single isomer, unassigned) [Example 474, (*R)-3-(3-(Difluoromethyl)-8-methyl-[1,2,4]triazolo[4,3-a]pyridin-7-yl)-3-(3-((1′,1′-dioxidospiro[cyclopropane-1,4′-pyrido[2,3-b][1,4,5]oxathiazepin]-2′(3′H)-yl)methyl)-4-methylphenyl)propanoic Acid]	1580 nM
< 1 nM	Cc1ccc([C@H](CC(=O)O)c2ccn3c(C(F)F)nnc3c2C)cc1CN1C[C@]2(C)CCCN2c2ncccc2S1(=O)=O (single isomer, unassigned) [Example 476, (*S)-3-(3-(Difluoromethyl)-8-methyl-[1,2,4]triazolo[4,3-a]pyridin-7-yl)-3-(4-methyl-3-(((*S)-7a-methyl-5,5-dioxido-7a,8,9,10-tetrahydropyrido[2,3-f]pyrrolo[2,1-d][1,2,5]thiadiazepin-6(7H)-yl)methyl)phenyl)propanoic Acid]	219 nM
2.61 nM	Cc1ccc([C@@H](CC(=O)O)c2ccn3c(C(F)F)nnc3c2C)cc1CN1C[C@]2(C)CCCN2c2ncccc2S1(=O)=O (single isomer, unassigned) [Example 477, (*R)-3-(3-(Difluoromethyl)-8-methyl-[1,2,4]triazolo[4,3-a]pyridin-7-yl)-3-(4-methyl-3-(((*S)-7a-methyl-5,5-dioxido-7a,8,9,10-tetrahydropyrido[2,3-f]pyrrolo[2,1-d][1,2,5]thiadiazepin-6(7H)-yl)methyl)phenyl)propanoic Acid]	1680 nM
< 1 nM	Cc1ccc([C@@H](CC(=O)O)c2ccn3c(C(F)(F)F)nnc3c2C)nc1CN1C[C@@H]2CCCCN2c2ncccc2S1(=O)=O (single isomer, unassigned) [Example 479, (*S)-3-(6-(((*S)-5,5-Dioxido-7,7a,8,9,10,11-hexahydro-6H-dipyrido[2,1-d:2′,3′-f][1,2,5]thiadiazepin-6-yl)methyl)-5-methylpyridin-2-yl)-3-(8-methyl-3-(trifluoromethyl)-[1,2,4]triazolo[4,3-a]pyridin-7-yl)propanoic Acid]	48.8 nM
< 1 nM	Cc1ccc([C@H](CC(=O)O)c2ccn3c(C(F)(F)F)nnc3c2C)nc1CN1C[C@@H]2CCCCN2c2ncccc2S1(=O)=O (single isomer, unassigned) [Example 480, (*R)-3-(6-(((*S)-5,5-Dioxido-7,7a,8,9,10,11-hexahydro-6H-dipyrido[2,1-d:2′,3′-f][1,2,5]thiadiazepin-6-yl)methyl)-5-methylpyridin-2-yl)-3-(8-methyl-3-(trifluoromethyl)-[1,2,4]triazolo[4,3-a]pyridin-7-yl)propanoic Acid]	252 nM
< 1 nM	Cc1ccc([C@@H](CC(=O)O)c2ccn3c(C(F)(F)F)nnc3c2C)nc1CN1CC2(CC2)Oc2ncccc2S1(=O)=O (single isomer, unassigned) [Example 482, (*S)-3-(6-((1′,1′-Dioxidospiro[cyclopropane-1,4′-pyrido[2,3-b][1,4,5]oxathiazepin]-2′(3′H)-yl)methyl)-5-methylpyridin-2-yl)-3-(8-methyl-3-(trifluoromethyl)-[1,2,4]triazolo[4,3-a]pyridin-7-yl)propanoic Acid]	701 nM
< 1 nM	Cc1ccc([C@H](CC(=O)O)c2ccn3c(C(F)(F)F)nnc3c2C)nc1CN1CC2(CC2)Oc2ncccc2S1(=O)=O (single isomer, unassigned) [Example 483, (*R)-3-(6-((1′,1′-Dioxidospiro[cyclopropane-1,4′-pyrido[2,3-b][1,4,5]oxathiazepin]-2′(3′H)-yl)methyl)-5-methylpyridin-2-yl)-3-(8-methyl-3-(trifluoromethyl)-[1,2,4]triazolo[4,3-a]pyridin-7-yl)propanoic Acid]	3450 nM
< 1 nM	Cc1ccc([C@@H](CC(=O)O)c2ccn3c(C(F)(F)F)nnc3c2C)nc1CN1CC2(COC2)Oc2ccccc2S1(=O)=O (single isomer, unassigned) [Example 485, (*S)-3-(6-((1,1-dioxidospiro[benzo[b][1,4,5]oxathiazepine-4,3′-oxetan]-2(3H)-yl)methyl)-5-methylpyridin-2-yl)-3-(8-methyl-3-(trifluoromethyl)-[1,2,4]triazolo[4,3-a]pyridin-7-yl)propanoic Acid]	156 nM
1.83 nM	Cc1ccc([C@H](CC(=O)O)c2ccn3c(C(F)(F)F)nnc3c2C)nc1CN1CC2(COC2)Oc2ccccc2S1(=O)=O (single isomer, unassigned) [Example 486, (*R)-3-(6-((1,1-dioxidospiro[benzo[b][1,4,5]oxathiazepine-4,3′-oxetan]-2(3H)-yl)methyl)-5-methylpyridin-2-yl)-3-(8-methyl-3-(trifluoromethyl)-[1,2,4]triazolo[4,3-a]pyridin-7-yl)propanoic Acid]	333 nM
< 1 nM	Cc1cnc2c(c1)S(=O)(=O)N(Cc1nc([C@H](CC(=O)O)c3ccn4c(C(F)(F)F)nnc4c3C)ccc1C)C[C@@H]1CCCCN21 (single isomer, unassigned) [Example 489, (*R)-3-(8-Methyl-3-(trifluoromethyl)-[1,2,4]triazolo[4,3-a]pyridin-7-yl)-3-(5-methyl-6-(((*S)-3-methyl-5,5-dioxido-7,7a,8,9,10,11-hexahydro-6H-dipyrido[2,1-d:2′,3′-f][1,2,5]thiadiazepin-6-yl)methyl)pyridin-2-yl)propanoic Acid]	29.8 nM
< 1 nM	Cc1cnc2c(c1)S(=O)(=O)N(Cc1nc([C@@H](CC(=O)O)c3ccn4c(C(F)(F)F)nnc4c3C)ccc1C)C[C@H]1CCCCN21 (single isomer, unassigned) [Example 491, (*S)-3-(8-Methyl-3-(trifluoromethyl)-[1,2,4]triazolo[4,3-a]pyridin-7-yl)-3-(5-methyl-6-(((*R)-3-methyl-5,5-dioxido-7,7a,8,9,10,11-hexahydro-6H-dipyrido[2,1-d:2′,3′-f][1,2,5]thiadiazepin-6-yl)methyl)pyridin-2-yl)propanoic Acid]	5.53 nM
< 1 nM	Cc1cnc2c(c1)S(=O)(=O)N(Cc1nc([C@H](CC(=O)O)c3ccn4c(C(F)(F)F)nnc4c3C)ccc1C)C[C@H]1CCCCN21 (single isomer, unassigned) [Example 492, (*R)-3-(8-Methyl-3-(trifluoromethyl)-[1,2,4]triazolo[4,3-a]pyridin-7-yl)-3-(5-methyl-6-(((*R)-3-methyl-5,5-dioxido-7,7a,8,9,10,11-hexahydro-6H-dipyrido[2,1-d:2′,3′-f][1,2,5]thiadiazepin-6-yl)methyl)pyridin-2-yl)propanoic Acid]	12.9 nM
< 1 nM	Cc1ccc([C@@H](CC(=O)O)c2ccn3c(C(F)(F)F)nnc3c2C)nc1CN1CC2(COC2)Oc2ncccc2S1(=O)=O (single isomer, unassigned) [Example 494, (*S)-3-(6-((1′,1′-Dioxidospiro[oxetane-3,4′-pyrido[2,3-b][1,4,5]oxathiazepin]-2′(3′H)-yl)methyl)-5-methylpyridin-2-yl)-3-(8-methyl-3-(trifluoromethyl)-[1,2,4]triazolo[4,3-a]pyridin-7-yl)propanoic Acid]	577 nM
< 1 nM	Cc1ccc([C@H](CC(=O)O)c2ccn3c(C(F)(F)F)nnc3c2C)nc1CN1CC2(COC2)Oc2ncccc2S1(=O)=O (single isomer, unassigned) [Example 495, (*R)-3-(6-((1′,1′-Dioxidospiro[oxetane-3,4′-pyrido[2,3-b][1,4,5]oxathiazepin]-2′(3′H)-yl)methyl)-5-methylpyridin-2-yl)-3-(8-methyl-3-(trifluoromethyl)-[1,2,4]triazolo[4,3-a]pyridin-7-yl)propanoic Acid]	2860 nM
< 1 nM	Cc1ccc([C@@H](CC(=O)O)c2ccn3c(C(F)(F)F)nnc3c2C)nc1CN1C[C@@H]2CCCCN2c2ncc(F)cc2S1(=O)=O (single isomer, unassigned) [Example 497, (*S)-3-(6-(((*S)-3-Fluoro-5,5-dioxido-7,7a,8,9,10,11-hexahydro-6H-dipyrido[2,1-d:2′,3′-f][1,2,5]thiadiazepin-6-yl)methyl)-5-methylpyridin-2-yl)-3-(8-methyl-3-(trifluoromethyl)-[1,2,4]triazolo[4,3-a]pyridin-7-yl)propanoic Acid]	4.47 nM
< 1 nM	Cc1ccc([C@H](CC(=O)O)c2ccn3c(C(F)(F)F)nnc3c2C)nc1CN1C[C@@H]2CCCCN2c2ncc(F)cc2S1(=O)=O (single isomer, unassigned) [Example 498, (*R)-3-(6-(((*S)-3-Fluoro-5,5-dioxido-7,7a,8,9,10,11-hexahydro-6H-dipyrido[2,1-d:2′,3′-f][1,2,5]thiadiazepin-6-yl)methyl)-5-methylpyridin-2-yl)-3-(8-methyl-3-(trifluoromethyl)-[1,2,4]triazolo[4,3-a]pyridin-7-yl)propanoic Acid]	14.7 nM
